Key:
[1] = biological target: Protein kinase C delta type (Homo sapiens, UniProt Q05655); assay: Inhibition of serine/threonine kinase(PKC-delta); design: species or system Sus scrofa
[2] = biological target: Proto-oncogene tyrosine-protein kinase Src (Homo sapiens, UniProt P12931); assay: Inhibition of tyrosine kinase(c-Src)
[3] = biological target: Platelet-derived growth factor receptor (Homo sapiens, UniProt P09619+P16234); assay: Inhibition of tyrosine kinase(PDGF-R); type: protein-complex assay
[4] = biological target: Protein kinase C alpha type (Homo sapiens, UniProt P17252); assay: Inhibition of serine/threonine kinase(PKC-alpha); design: species or system Sus scrofa
[5] = biological target: Epidermal growth factor receptor (Homo sapiens, UniProt P00533); assay: Inhibition of tyrosine kinase Epidermal growth factor receptor
[6] = biological target: cAMP-dependent protein kinase (PKA) (Homo sapiens, UniProt P22694+P17612+P22612); assay: Inhibition of serine/threonine kinase(PKA); type: protein assay, Oryctolagus cuniculus

Protein kinase C delta type, sequence (Q05655 whole entry): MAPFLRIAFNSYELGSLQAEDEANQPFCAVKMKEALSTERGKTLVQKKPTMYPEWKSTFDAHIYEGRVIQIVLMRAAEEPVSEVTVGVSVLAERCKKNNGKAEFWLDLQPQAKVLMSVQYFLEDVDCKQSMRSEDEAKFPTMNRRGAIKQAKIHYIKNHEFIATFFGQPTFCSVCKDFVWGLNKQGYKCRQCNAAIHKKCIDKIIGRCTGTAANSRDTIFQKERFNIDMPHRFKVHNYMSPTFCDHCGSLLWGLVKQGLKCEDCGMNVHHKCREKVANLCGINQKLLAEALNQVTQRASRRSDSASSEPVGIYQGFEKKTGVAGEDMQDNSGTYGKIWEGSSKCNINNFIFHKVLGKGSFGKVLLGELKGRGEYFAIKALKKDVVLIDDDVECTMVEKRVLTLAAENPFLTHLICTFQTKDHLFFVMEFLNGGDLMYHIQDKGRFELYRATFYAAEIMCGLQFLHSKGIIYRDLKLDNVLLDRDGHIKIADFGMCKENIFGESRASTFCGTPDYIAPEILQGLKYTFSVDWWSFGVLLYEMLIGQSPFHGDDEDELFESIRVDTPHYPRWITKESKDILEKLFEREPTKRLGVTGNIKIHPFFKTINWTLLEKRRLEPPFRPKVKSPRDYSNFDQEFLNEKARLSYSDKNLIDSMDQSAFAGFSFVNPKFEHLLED
Proto-oncogene tyrosine-protein kinase Src, sequence (P12931 2-536 limits assumed): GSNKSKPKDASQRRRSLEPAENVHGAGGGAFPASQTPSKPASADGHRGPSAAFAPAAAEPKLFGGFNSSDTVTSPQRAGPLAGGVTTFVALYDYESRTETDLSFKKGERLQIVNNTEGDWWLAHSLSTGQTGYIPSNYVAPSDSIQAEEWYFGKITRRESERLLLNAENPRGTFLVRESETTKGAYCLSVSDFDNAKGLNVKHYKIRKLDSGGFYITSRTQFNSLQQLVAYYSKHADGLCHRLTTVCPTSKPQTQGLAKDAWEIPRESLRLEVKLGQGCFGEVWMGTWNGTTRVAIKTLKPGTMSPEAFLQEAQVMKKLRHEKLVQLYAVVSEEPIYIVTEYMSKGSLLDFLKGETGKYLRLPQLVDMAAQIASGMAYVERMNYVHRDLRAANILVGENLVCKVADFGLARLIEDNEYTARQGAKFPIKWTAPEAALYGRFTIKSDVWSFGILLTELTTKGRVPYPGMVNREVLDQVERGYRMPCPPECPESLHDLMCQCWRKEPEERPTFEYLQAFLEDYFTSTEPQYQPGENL
Epidermal growth factor receptor, sequence (P00533 whole entry): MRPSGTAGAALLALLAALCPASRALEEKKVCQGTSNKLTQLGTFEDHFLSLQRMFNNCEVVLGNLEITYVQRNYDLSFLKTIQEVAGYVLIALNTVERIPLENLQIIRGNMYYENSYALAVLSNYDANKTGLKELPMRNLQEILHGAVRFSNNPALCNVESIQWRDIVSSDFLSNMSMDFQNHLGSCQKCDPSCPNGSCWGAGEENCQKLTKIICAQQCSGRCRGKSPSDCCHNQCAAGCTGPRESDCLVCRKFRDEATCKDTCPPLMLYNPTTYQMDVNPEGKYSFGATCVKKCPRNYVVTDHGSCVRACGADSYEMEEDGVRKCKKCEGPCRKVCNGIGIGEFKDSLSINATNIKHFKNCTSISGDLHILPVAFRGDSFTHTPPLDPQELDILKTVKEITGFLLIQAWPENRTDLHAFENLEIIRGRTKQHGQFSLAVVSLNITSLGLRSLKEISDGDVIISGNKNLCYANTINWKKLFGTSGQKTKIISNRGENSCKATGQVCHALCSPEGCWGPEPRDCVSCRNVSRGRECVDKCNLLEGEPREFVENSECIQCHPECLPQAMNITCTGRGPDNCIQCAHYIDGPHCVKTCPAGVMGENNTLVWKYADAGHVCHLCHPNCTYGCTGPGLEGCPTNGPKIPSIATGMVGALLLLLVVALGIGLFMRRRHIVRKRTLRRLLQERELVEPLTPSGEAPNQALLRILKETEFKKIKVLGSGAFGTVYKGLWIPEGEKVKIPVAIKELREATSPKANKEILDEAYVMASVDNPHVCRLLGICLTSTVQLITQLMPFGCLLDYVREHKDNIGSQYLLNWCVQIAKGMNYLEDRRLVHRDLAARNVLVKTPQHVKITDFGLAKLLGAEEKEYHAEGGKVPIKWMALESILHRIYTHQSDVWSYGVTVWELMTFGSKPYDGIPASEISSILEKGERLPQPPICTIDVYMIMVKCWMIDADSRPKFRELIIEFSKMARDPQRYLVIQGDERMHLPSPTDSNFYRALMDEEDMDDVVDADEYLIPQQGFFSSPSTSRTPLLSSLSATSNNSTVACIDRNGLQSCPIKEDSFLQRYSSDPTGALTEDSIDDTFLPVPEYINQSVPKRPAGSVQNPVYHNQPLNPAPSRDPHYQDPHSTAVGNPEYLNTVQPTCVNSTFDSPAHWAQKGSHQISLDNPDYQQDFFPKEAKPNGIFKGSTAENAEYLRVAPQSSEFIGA

IC50 [1] [µM]	IC50 [2] [µM]	IC50 [3] [nM]	IC50 [4] [µM]	IC50 [5] [µM]	IC50 [6] [µM]	Structure (SMILES)
> 500	> 100	50	> 100	> 100	> 100	Cc1ccc(NC(=O)c2ccc3ccccc3c2)cc1Nc1nccc(-c2cccnc2)n1
> 500	> 100	> 100000	> 500	> 100	> 500	Cc1ccc([N+](=O)[O-])cc1Nc1nccc(-c2cccnc2)n1
> 500			72		> 500	Cc1ccc(NC(=O)c2ccccc2)cc1Nc1nccc(-c2cccnc2)n1
> 100	> 100	> 10000	> 100	> 100	> 500	Cc1ccc(NC(=O)c2ccccc2)cc1Nc1nccc(-c2cccs2)n1
> 100		> 10000	> 100	> 100	> 500	Cc1ccc(NC(=O)c2ccccc2)cc1Nc1nccc(-c2ccc[n+]([O-])c2)n1
> 100		> 10000	10	> 100	> 500	COc1ccc(NC(=O)c2ccccc2)cc1Nc1nccc(-c2cccnc2)n1
> 500	> 100	10	> 100	> 100	> 100	Cc1ccc(NC(=O)c2ccc(Cl)cc2)cc1Nc1nccc(-c2cccnc2)n1
> 100		> 10000	71	> 100	> 500	CNc1ccc(C)c(Nc2nccc(-c3cccnc3)n2)c1
> 100		2500	> 100	75	> 500	Cc1ccc(N(C(=O)c2ccccc2)C(=O)c2ccccc2)cc1Nc1nccc(-c2cccnc2)n1
> 500	> 100	> 10000	> 100	> 100	> 500	Cc1ccc(N)cc1Nc1nccc(-c2cccnc2)n1
> 100		> 100000	85	49	> 500	Cc1ccc(N(C)C(=O)c2ccccc2)cc1Nc1nccc(-c2cccnc2)n1
> 100		150	> 100	> 100	> 500	O=C(Nc1ccc(Cl)c(Nc2nccc(-c3cccnc3)n2)c1)c1ccccc1
> 500	> 100	300	> 100	> 100	> 500	COc1ccccc1C(=O)Nc1ccc(C)c(Nc2nccc(-c3cccnc3)n2)c1
> 500	> 100	50000	> 100	> 100	> 500	CC(=O)Nc1ccc(C)c(Nc2nccc(-c3cccnc3)n2)c1

Structure (SMILES)	IC50 [1] [µM]	IC50 [2] [µM]	IC50 [3] [nM]	IC50 [4] [µM]	IC50 [5] [µM]	IC50 [6] [µM]
Cc1ccc(C(=O)Nc2ccc(C)c(Nc3nccc(-c4cccnc4)n3)c2)cc1	> 500	> 100	10	> 100	> 100	> 100
O=C(Nc1cccc(Nc2nccc(-c3cccnc3)n2)c1)c1ccccc1	23	15.7	5000	1.2	> 50	> 500

From ChEMBL document CHEMBL1159186 (Bioorg Med Chem Lett, 1996)
